Legend:
IKZF1 = IKZF1 (Homo sapiens (Human), UniProt Q13422+Q96SW2); assay: IKZF1 HiBit Assay (HEK293T Flp-in-HiBiT-IKZF1 stable cell line); format: cell-based; settings: HEK293T Flp-in-HiBiT-IKZF1 cells, 6 hrs; for DC50: read-out: IKZF1 HiBit degradation DC50; for Dmax: HEK-293T, read-out: IKZF1 HiBit degradation Dmax
Experimental: The HiBiT protein tagging system was applied to modified Cells: modified HEK293T Flp-in-HiBiT-IKZF1 stable cell line (polyclone) via a CRISPR/Cas9—mediated insertion of the HiBiT peptide tag (Promega™) to the N-terminus of the IKZF2 gene locus (Neon™ transfection system).
Test compound from 10 mM and reference compound (CC-92480 from 50 mM and I-57 from 10 mM) are diluted at 3 folds for 11 doses. 25 nL of diluted compound is transferred to assay plates (Corning3571) using ECHO550, the final DMSO concentration @0.1%. The cells are seeded in 3000/[…]/well to compound plates. The plates are incubated for 6 hrs in TC incubator. The amount of Nano-Glo® HiBiT lytic reagent needed to perform the desired experiments is calculated. The Nano-Glo® HiBiT lytic reagent is brought to room temperature. The LgBiT protein is diluted to 1:100 and the Nano-Glo® HiBiT lytic substrate is brought to 1:50 into an appropriate volume of room temperature Nano-Glo® HiBiT lytic buffer. […] of the detection reagent (or without LgBiT) is dispensed to corresponding well according to the layout. The plate is shaked for 10 mins at room temperature. After briefly centrifuging, the plate is read on Envision. At the indicated timepoints, the Nano-Glo® HiBiT lytic detection system (Promega™) was utilized for detecting bioluminescence of the HiBiT tag in treated cells: abundance of the tag is proportionate to the level of luminescence. Following normalization to DMSO, dose-response curves were plotted (GraphPad Prism) to determine the concentration points at which 50% of HiBiT-Ikaros degradation was achieved by each compound. The extent of degradation (range of luminescence) from the highest to lowest concentration points was calculated to determine the Dm.

[1] = molecular target: His tagged CRBN+DDB−DLS7+CXU4 (Homo sapiens (Human), UniProt Q96SW2); assay: IC50 Measurements for Binding to CRBN/DDBI (HTRF); settings: Cy5-labeled Thalidomide probe, one hour incubation
Sequence of His tagged CRBN+DDB−DLS7+CXU4 (Q96SW2 whole entry): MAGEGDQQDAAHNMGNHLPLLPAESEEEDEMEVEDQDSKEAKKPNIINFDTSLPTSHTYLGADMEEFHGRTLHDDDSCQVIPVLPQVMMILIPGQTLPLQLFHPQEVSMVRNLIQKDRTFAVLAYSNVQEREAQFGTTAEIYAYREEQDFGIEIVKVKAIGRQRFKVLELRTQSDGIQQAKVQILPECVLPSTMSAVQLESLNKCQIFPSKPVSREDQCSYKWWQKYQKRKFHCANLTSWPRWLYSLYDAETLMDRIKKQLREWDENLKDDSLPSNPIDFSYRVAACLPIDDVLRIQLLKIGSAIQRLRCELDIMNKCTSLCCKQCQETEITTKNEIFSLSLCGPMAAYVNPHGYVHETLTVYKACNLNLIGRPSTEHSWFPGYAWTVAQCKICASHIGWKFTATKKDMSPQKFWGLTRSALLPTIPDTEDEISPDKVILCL
Sequence of His tagged CRBN+DDB−DLS7+CXU4 (Q16531 whole entry partner): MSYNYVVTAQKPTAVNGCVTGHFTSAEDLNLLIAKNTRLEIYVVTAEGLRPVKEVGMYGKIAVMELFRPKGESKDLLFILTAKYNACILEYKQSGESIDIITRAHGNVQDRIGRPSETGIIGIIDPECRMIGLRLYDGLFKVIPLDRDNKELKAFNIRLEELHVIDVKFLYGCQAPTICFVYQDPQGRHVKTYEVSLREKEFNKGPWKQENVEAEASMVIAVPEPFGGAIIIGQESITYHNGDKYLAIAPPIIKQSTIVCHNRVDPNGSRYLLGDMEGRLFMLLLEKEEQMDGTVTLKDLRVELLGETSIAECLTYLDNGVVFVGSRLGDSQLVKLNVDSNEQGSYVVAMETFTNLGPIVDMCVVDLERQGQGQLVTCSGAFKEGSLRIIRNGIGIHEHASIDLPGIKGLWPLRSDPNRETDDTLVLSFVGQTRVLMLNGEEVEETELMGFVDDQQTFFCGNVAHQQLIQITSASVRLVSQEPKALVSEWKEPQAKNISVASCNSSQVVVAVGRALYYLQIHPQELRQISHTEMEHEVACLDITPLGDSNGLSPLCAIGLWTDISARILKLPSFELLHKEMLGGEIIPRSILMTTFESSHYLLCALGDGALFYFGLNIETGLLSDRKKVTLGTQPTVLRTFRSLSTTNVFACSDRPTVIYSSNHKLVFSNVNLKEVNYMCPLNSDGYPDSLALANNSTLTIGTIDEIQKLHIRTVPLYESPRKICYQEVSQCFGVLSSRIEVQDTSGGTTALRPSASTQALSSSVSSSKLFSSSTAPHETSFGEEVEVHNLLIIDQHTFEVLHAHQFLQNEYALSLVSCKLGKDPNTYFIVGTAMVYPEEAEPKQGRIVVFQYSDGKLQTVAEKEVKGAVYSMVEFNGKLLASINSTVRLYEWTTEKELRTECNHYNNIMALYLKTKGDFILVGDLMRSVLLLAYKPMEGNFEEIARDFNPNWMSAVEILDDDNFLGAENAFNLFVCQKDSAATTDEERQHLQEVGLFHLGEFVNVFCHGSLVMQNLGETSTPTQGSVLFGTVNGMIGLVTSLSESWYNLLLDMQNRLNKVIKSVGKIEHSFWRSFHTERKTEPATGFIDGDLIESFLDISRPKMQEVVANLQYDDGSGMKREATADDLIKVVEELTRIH

IKZF2 = IKZF2 (Homo sapiens (Human), UniProt Q96SW2+Q9UKS7); assay: IKZF2 HiBit Assay (HEK293T Flp-in-HiBiT cells); format: cell-based; settings: HEK293T Flp-in-HiBiT cells, 6 hrs; for DC50: read-out: IKZF2 HiBit degradation DC50; for Dmax: HEK-293T, read-out: IKZF2 HiBit degradation Dmax
Sequence of IKZF2 (Q9UKS7 whole entry): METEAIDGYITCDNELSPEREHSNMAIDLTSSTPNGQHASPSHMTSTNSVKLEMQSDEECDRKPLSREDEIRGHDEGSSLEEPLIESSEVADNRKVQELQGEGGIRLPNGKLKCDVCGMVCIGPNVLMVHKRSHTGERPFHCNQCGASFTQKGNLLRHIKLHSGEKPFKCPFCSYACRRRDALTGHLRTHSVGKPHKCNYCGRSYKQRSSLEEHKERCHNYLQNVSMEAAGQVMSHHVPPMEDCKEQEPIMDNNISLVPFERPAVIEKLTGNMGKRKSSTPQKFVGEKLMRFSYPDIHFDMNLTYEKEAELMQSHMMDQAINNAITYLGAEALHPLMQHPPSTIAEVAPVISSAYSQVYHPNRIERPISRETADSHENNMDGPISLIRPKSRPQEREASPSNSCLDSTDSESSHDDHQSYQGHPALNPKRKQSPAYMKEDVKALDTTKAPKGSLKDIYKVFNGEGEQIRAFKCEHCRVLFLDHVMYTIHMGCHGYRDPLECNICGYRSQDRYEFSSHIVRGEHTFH
Sequence of IKZF2 (Q96SW2 whole entry): as the sequence (Q96SW2 whole entry) above
Sequence of IKZF2 (Q16531 whole entry partner): as the sequence (Q16531 whole entry partner) above
Experimental: The HiBiT protein tagging system was applied to modified HEK293T Flp-in-HiBiT cells (polyclone) via a CRISPR/Cas9—mediated insertion of the HiBiT peptide tag (Promega™) to the N-terminus of the IKZF2 gene locus (Neon™ transfection system). Test and reference compounds are diluted from 1 mM at 3 folds for 11 doses. 25 nL of diluted compound is transferred to assay plates (Corning3570) using ECHO550, the final DMSO concentration @0.1%. The cells are seeded in 3000/[…]/well to compound plates. It is then incubated for 6 hrs in TC incubator. The amount of Nano-Glo® HiBiT lytic reagent needed to perform the desired experiments is calculated. The Nano-Glo® HiBiT lytic reagent is brought to room temperature. The LgBiT protein is diluted to 1:100 and the Nano-Glo® HiBiT lytic substrate is diluted to 1:50 into an appropriate volume of room temperature Nano-Glo® HiBiT lytic buffer. […] of the detection reagent (or without LgBiT) is dispensed to corresponding well according to the layout. The plate is then shaked for 10 mins at room temperature. After briefly centrifuge, the plate is read on Envision. At the indicated timepoints, the Nano-Glo® HiBiT lytic detection system (Promega™) was utilized for detecting bioluminescence of the HiBiT tag in treated cells: abundance of the tag is proportionate to the level of luminescence. Following normalization to DMSO, dose-response curves were plotted (GraphPad Prism) to determine the concentration points at which 50% of HiBiT-Helios degradation was achieved by each compound. The extent of degradation (range of luminescence) from the highest to lowest concentration points was calculated to determine the Dmax.

Sequence of IKZF1 (Q13422 whole entry): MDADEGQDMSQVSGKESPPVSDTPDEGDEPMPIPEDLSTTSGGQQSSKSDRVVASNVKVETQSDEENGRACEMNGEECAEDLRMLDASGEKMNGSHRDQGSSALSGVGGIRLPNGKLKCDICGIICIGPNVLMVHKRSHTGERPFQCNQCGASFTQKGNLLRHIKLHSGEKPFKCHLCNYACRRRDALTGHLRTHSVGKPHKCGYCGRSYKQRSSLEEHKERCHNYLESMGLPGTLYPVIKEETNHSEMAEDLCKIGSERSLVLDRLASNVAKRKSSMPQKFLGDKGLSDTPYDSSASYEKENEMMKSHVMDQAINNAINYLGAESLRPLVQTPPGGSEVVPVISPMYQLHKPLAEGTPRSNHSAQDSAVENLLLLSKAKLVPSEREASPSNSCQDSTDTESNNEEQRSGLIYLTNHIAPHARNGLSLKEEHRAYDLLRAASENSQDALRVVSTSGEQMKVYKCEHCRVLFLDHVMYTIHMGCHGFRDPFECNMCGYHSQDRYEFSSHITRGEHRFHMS
Sequence of IKZF1 (Q96SW2 whole entry): as the sequence (Q96SW2 whole entry) above
Sequence of IKZF1 (Q16531 whole entry partner): as the sequence (Q16531 whole entry partner) above

| Molecule | DC50 (IKZF1) [nM] | Dmax (IKZF1) [%] | IC50 [1] [nM] | DC50 (IKZF2) [nM] | Dmax (IKZF2) [%] | IKZF1 HiBit degradation Dmax (IKZF1) | IKZF2 HiBit degradation Dmax (IKZF2) |
| --- | --- | --- | --- | --- | --- | --- | --- |
| Cn1cc(-c2cccc(CN3CCC4(CC3)COc3c4cc(C#N)c4c3CN([C@H]3CCC(=O)NC3=O)C4=O)c2)cn1 [Compound B19, (S)-7-(2,6-dioxopiperidin-3-yl)-1′-(3-(1-methyl-1H-pyrazol-4-yl)benzyl)-6-oxo-7,8-dihydro-2H,6H-spiro[furo[2,3-e]isoindole-3,4′-piperidine]-5-carbonitrile] | > 1000 | < 20 | 1000 to 5000 | 100 to 1000 | 40 to 60 | – | – |
| [2H]C([2H])(c1cccc(-c2cnn(C(F)F)c2)c1)N1CCC2(CC1)COc1c2ccc2c1CN([C@H]1CCC(=O)NC1=O)C2=O [Compound B10, (S)-3-(1′-((3-(1-(difluoromethyl)-1H-pyrazol-4-yl)phenyl)methyl-d2)-6-oxo-6,8-dihydro-2H,7H-spiro[furo[2,3-e]isoindole-3,4′-piperidin]-7-yl) piperidine-2,6-dione] | > 1000 | < 20 | 100 to 500 | 1 to 10 | 60 to 80 | – | – |
| O=C1CCC(N2Cc3c(ccc4c3OCC43CCN(Cc4ccccc4)CC3O)C2=O)C(=O)N1 (stereo not drawn) [Compound B22, 3-(1′-benzyl-3′-hydroxy-6-oxo-6,8-dihydro-2H,7H-spiro[furo[2,3-e]isoindole-3,4′-piperidin]-7-yl)piperidine-2,6-dione] | > 1000 | < 20 | 100 to 500 | 10 to 100 | 20 to 40 | – | – |
| Cn1ncc2c(CN3CCC4(COc5c4ccc4c5CN([C@H]5CCC(=O)NC5=O)C4=O)C(F)(F)C3)cccc21 (stereo partly drawn) [Compound B43, (3S)-3-(3′,3′-difluoro-1′-((1-methyl-1H-indazol-4-yl)methyl)-6-oxo-6,8-dihydro-2H,7H-spiro[furo[2,3-e]isoindole-3,4′-piperidin]-7-yl)piperidine-2,6-dione] | > 1000 | < 20 | 1000 to 5000 | 1 to 10 | 60 to 80 | – | – |
| [2H]C([2H])(c1cccc(-c2cnn(C)c2)c1)N1CCC2(CC1)COc1c2ccc2c1CN([C@H]1CCC(=O)NC1=O)C2=O [Compound B11, (S)-3-(1′-((3-(1-methyl-1H-pyrazol-4-yl)phenyl)methyl-d2)-6-oxo-6,8-dihydro-2H,7H-spiro[furo[2,3-e]isoindole-3,4′-piperidin]-7-yl)piperidine-2,6-dione] | > 1000 | < 20 | < 100 | 1 to 10 | > 80 | – | – |
| [2H]C([2H])(c1cccc(-c2cnn(C([2H])([2H])[2H])c2)c1)N1CCC2(CC1)COc1c2ccc2c1CN([C@H]1CCC(=O)NC1=O)C2=O [Compound B9, (S)-3-(1′-((3-(1-(methyl-d3)-1H-pyrazol-4-yl)phenyl)methyl-d2)-6-oxo-6,8-dihydro-2H,7H-spiro[furo[2,3-e]isoindole-3,4′-piperidin]-7-yl)piperidine-2,6-dione] | > 1000 | < 20 | < 100 | 1 to 10 | 60 to 80 | – | – |
| O=C1CC[C@H](N2Cc3c4c(cc(Cl)c3C2=O)C2(CCN(Cc3ccccc3)CC2)CO4)C(=O)N1 [Compound B17, (S)-3-(1′-benzyl-5-chloro-6-oxo-6,8-dihydro-2H,7H-spiro[furo[2,3-e]isoindole-3,4′-piperidin]-7-yl)piperidine-2,6-dione] | > 1000 | < 20 | 500 to 1000 | > 1000 | < 20 | – | – |
| [2H]C([2H])([2H])n1cc(-c2cccc(CN3CCC4(CC3)COc3c4ccc4c3CN([C@H]3CCC(=O)NC3=O)C4=O)c2)cn1 [Compound B12, (S)-3-(1′-(3-(1-(methyl-d3)-1H-pyrazol-4-yl)benzyl)-6-oxo-6,8-dihydro-2H,7H-spiro[furo[2,3-e]isoindole-3,4′-piperidin]-7-yl)piperidine-2,6-dione] | > 1000 | < 20 | 100 to 500 | 1 to 10 | > 80 | – | – |
| O=C1CC[C@H](N2Cc3c(ccc4c3OCC43CCN(Cc4cccc5[nH]ncc45)CC3(F)F)C2=O)C(=O)N1 (stereo partly drawn) [Compound B41, (3S)-3-(1′-((1H-indazol-4-yl)methyl)-3′,3′-difluoro-6-oxo-6,8-dihydro-2H,7H-spiro[furo[2,3-e]isoindole-3,4′-piperidin]-7-yl)piperidine-2,6-dione] | 10 to 100 | 20 to 40 | 100 to 500 | 1 to 10 | 60 to 80 | – | – |
| Cn1cc2ccc(CN3CCC4(COc5c4ccc4c5CN([C@H]5CCC(=O)NC5=O)C4=O)C(F)(F)C3)cc2n1 (stereo partly drawn) [Compound B35, (3S)-3-(3′,3′-difluoro-1′-((2-methyl-2H-indazol-6-yl)methyl)-6-oxo-6,8-dihydro-2H,7H-spiro[furo[2,3-e]isoindole-3,4′-piperidin]-7-yl)piperidine-2,6-dione] | > 1000 | < 20 | < 100 | 1 to 10 | 60 to 80 | – | – |
| O=C1CC[C@H](N2Cc3c(ccc4c3OCC43CCN(Cc4cc(-c5ccc(Cl)cc5)no4)CC3)C2=O)C(=O)N1 [Compound B2, (S)-3-(1′-((3-(4-chlorophenyl)isoxazol-5-yl)methyl)-6-oxo-6,8-dihydro-2H,7H-spiro[furo[2,3-e]isoindole-3,4′-piperidin]-7-yl)piperidine-2,6-dione] | 10 to 100 | 20 to 40 | 1000 to 5000 | 1 to 10 | 60 to 80 | – | – |
| O=C1CC[C@H](N2Cc3c(ccc4c3OCC43CCN(Cc4cnn(-c5ccc(Cl)cc5)c4)CC3(F)F)C2=O)C(=O)N1 (stereo partly drawn) [Compound B30, (3S)-3-(1′-((1-(4-chlorophenyl)-1H-pyrazol-4-yl)methyl)-3′,3′-difluoro-6-oxo-6,8-dihydro-2H,7H-spiro[furo[2,3-e]isoindole-3,4′-piperidin]-7-yl)piperidine-2,6-dione] | > 1000 | < 20 | 1000 to 5000 | 1 to 10 | 60 to 80 | – | – |
| Cn1ncc2cc(CN3CCC4(COc5c4ccc4c5CN([C@H]5CCC(=O)NC5=O)C4=O)C(F)(F)C3)ccc21 (stereo partly drawn) [Compound B38, (3S)-3-(3′,3′-difluoro-1′-((1-methyl-1H-indazol-5-yl)methyl)-6-oxo-6,8-dihydro-2H,7H-spiro[furo[2,3-e]isoindole-3,4′-piperidin]-7-yl) piperidine-2,6-dione] | > 1000 | < 20 | 100 to 500 | 1 to 10 | 60 to 80 | – | – |
| Cn1cc(-c2cccc(CN3CCC4(COc5c4ccc4c5CN([C@H]5CCC(=O)NC5=O)C4=O)C(F)(F)C3)c2)cn1 (stereo partly drawn) [Compound B39, (3S)-3-(3′,3′-difluoro-1′-(3-(1-methyl-1H-pyrazol-4-yl)benzyl)-6-oxo-6,8-dihydro-2H,7H-spiro[furo[2,3-e]isoindole-3,4′-piperidin]-7-yl) piperidine-2,6-dione] | > 1000 | < 20 | 100 to 500 | < 1 | 60 to 80 | – | – |
| (3S)-3-(3′,3′-difluoro-1′-((1-methyl-1H-indazol-6-yl)methyl)-3-oxo-1,3,7,8-tetrahydro-2H-spiro[cyclopenta[e]isoindole-6,4′-piperidin]-2-yl)piperidine-2,6-dione [Compound B34] | > 1000 | – | 100 to 500 | 1 to 10 | – | C (C: <20%) | B (B: 60-80%) |
